Reference: the supplement of paper PMC13380429

Key:
Conditions in all cases: 72 h
[1] = system: U2OS; assay: cell viability relative to DMSO; higher = less toxic
[2] = system: Caco-2; assay: as above
[3] = system: HepG2; assay: as above
[4] = system: Calu-3; assay: as above
[5] = system: Vero E6; assay: as above
[6] = system: U2OS; assay: drug sensitivity score (DSS) for viability; higher = more toxic; extreme values may be limits of the assay
[7] = system: Caco-2; assay: as above
[8] = system: HepG2; assay: as above
[9] = system: Calu-3; assay: as above
[10] = system: Vero E6; assay: as above
[11] = system: U2OS; assay: relative viability EC50 (midpoint between 100% and the lowest measured viability); higher = less toxic
[12] = system: Caco-2; assay: as above
[13] = system: HepG2; assay: as above
[14] = system: Calu-3; assay: as above
[15] = system: Vero E6; assay: as above

CC(C)(C)CC(C)(C)c1ccc(O)c(Cc2ccc(Cl)cc2Cl)c1 [clofoctol]
cell viability ([1]; 1 nM): 99.4%
cell viability ([1]; 10 nM): 103%
cell viability ([1]; 100 nM): 102%
cell viability ([1]; 1000 nM): 103%
cell viability ([1]; 10000 nM): 96.9%
cell viability ([2]; 1 nM): 94.6%
cell viability ([2]; 10 nM): 102%
cell viability ([2]; 100 nM): 99.7%
cell viability ([2]; 1000 nM): 99.8%
cell viability ([2]; 10000 nM): 93.8%
cell viability ([3]; 1 nM): 109%
cell viability ([3]; 10 nM): 98%
cell viability ([3]; 100 nM): 113%
cell viability ([3]; 1000 nM): 96.2%
cell viability ([3]; 10000 nM): 98.5%
cell viability ([4]; 1 nM): 91.2%
cell viability ([4]; 10 nM): 96.5%
cell viability ([4]; 100 nM): 92.4%
cell viability ([4]; 1000 nM): 90.9%
cell viability ([4]; 10000 nM): 98.5%
cell viability ([5]; 1 nM): 107%
cell viability ([5]; 10 nM): 101%
cell viability ([5]; 100 nM): 102%
cell viability ([5]; 1000 nM): 99.8%
cell viability ([5]; 10000 nM): 102%
drug sensitivity score [6]: 0
drug sensitivity score [7]: 0
drug sensitivity score [8]: 0
drug sensitivity score [9]: 0
drug sensitivity score [10]: 0
relative viability EC50 [11]: > 10 µM
relative viability EC50 [12]: > 10 µM
relative viability EC50 [13]: > 10 µM
relative viability EC50 [14]: > 10 µM
relative viability EC50 [15]: > 10 µM

C[C@H]1O[C@@H](Oc2c(-c3cc(O)c(O)c(O)c3)oc3cc(O)cc(O)c3c2=O)[C@@H](O)[C@@H](O)[C@@H]1O [myricitrin]
cell viability ([1]; 1 nM): 97.9%
cell viability ([1]; 10 nM): 97.4%
cell viability ([1]; 100 nM): 94.7%
cell viability ([1]; 1000 nM): 99.1%
cell viability ([1]; 10000 nM): 94.7%
cell viability ([2]; 1 nM): 100%
cell viability ([2]; 10 nM): 105%
cell viability ([2]; 100 nM): 100%
cell viability ([2]; 1000 nM): 105%
cell viability ([2]; 10000 nM): 96%
cell viability ([3]; 1 nM): 104%
cell viability ([3]; 10 nM): 98.3%
cell viability ([3]; 100 nM): 109%
cell viability ([3]; 1000 nM): 86.6%
cell viability ([3]; 10000 nM): 99.6%
cell viability ([4]; 1 nM): 92.5%
cell viability ([4]; 10 nM): 99.2%
cell viability ([4]; 100 nM): 96.7%
cell viability ([4]; 1000 nM): 101%
cell viability ([4]; 10000 nM): 94.4%
cell viability ([5]; 1 nM): 99.5%
cell viability ([5]; 10 nM): 98.5%
cell viability ([5]; 100 nM): 97.7%
cell viability ([5]; 1000 nM): 96.1%
cell viability ([5]; 10000 nM): 93.8%
drug sensitivity score [6]: 0
drug sensitivity score [7]: 0
drug sensitivity score [8]: 0
drug sensitivity score [9]: 0
drug sensitivity score [10]: 0
relative viability EC50 [11]: > 10 µM
relative viability EC50 [12]: > 10 µM
relative viability EC50 [13]: > 10 µM
relative viability EC50 [14]: > 10 µM
relative viability EC50 [15]: > 10 µM

NS(=O)(=O)c1cc(C(=O)O)cc(N2CCCC2)c1Oc1ccccc1 [piretanide]
cell viability ([1]; 1 nM): 95.5%
cell viability ([1]; 10 nM): 96.7%
cell viability ([1]; 100 nM): 101%
cell viability ([1]; 1000 nM): 98.4%
cell viability ([1]; 10000 nM): 103%
cell viability ([2]; 1 nM): 90.2%
cell viability ([2]; 10 nM): 97.4%
cell viability ([2]; 100 nM): 106%
cell viability ([2]; 1000 nM): 104%
cell viability ([2]; 10000 nM): 110%
cell viability ([3]; 1 nM): 101%
cell viability ([3]; 10 nM): 99.7%
cell viability ([3]; 100 nM): 85.1%
cell viability ([3]; 1000 nM): 105%
cell viability ([3]; 10000 nM): 110%
cell viability ([4]; 1 nM): 90%
cell viability ([4]; 10 nM): 98.7%
cell viability ([4]; 100 nM): 90.5%
cell viability ([4]; 1000 nM): 94.8%
cell viability ([4]; 10000 nM): 101%
cell viability ([5]; 1 nM): 98.5%
cell viability ([5]; 10 nM): 100%
cell viability ([5]; 100 nM): 93.3%
cell viability ([5]; 1000 nM): 101%
cell viability ([5]; 10000 nM): 105%
drug sensitivity score [6]: 0
drug sensitivity score [7]: 0
drug sensitivity score [8]: 0
drug sensitivity score [9]: 0
drug sensitivity score [10]: 0
relative viability EC50 [11]: > 10 µM
relative viability EC50 [12]: > 10 µM
relative viability EC50 [13]: > 10 µM
relative viability EC50 [14]: > 10 µM
relative viability EC50 [15]: > 10 µM

C#C[C@]1(O)C=C[C@H]2[C@@H]3CCC4=CC(=O)CC[C@@H]4[C@H]3CC[C@@]21CC [gestodene]
cell viability ([1]; 1 nM): 96.3%
cell viability ([1]; 10 nM): 99.2%
cell viability ([1]; 100 nM): 94.3%
cell viability ([1]; 1000 nM): 96%
cell viability ([1]; 10000 nM): 102%
cell viability ([2]; 1 nM): 90.1%
cell viability ([2]; 10 nM): 89.6%
cell viability ([2]; 100 nM): 98.9%
cell viability ([2]; 1000 nM): 100%
cell viability ([2]; 10000 nM): 98.7%
cell viability ([3]; 1 nM): 103%
cell viability ([3]; 10 nM): 102%
cell viability ([3]; 100 nM): 111%
cell viability ([3]; 1000 nM): 105%
cell viability ([3]; 10000 nM): 99.7%
cell viability ([4]; 1 nM): 95.9%
cell viability ([4]; 10 nM): 101%
cell viability ([4]; 100 nM): 101%
cell viability ([4]; 1000 nM): 88.5%
cell viability ([4]; 10000 nM): 108%
cell viability ([5]; 1 nM): 95.9%
cell viability ([5]; 10 nM): 96.8%
cell viability ([5]; 100 nM): 96.3%
cell viability ([5]; 1000 nM): 94.3%
cell viability ([5]; 10000 nM): 106%
drug sensitivity score [6]: 0
drug sensitivity score [7]: 0
drug sensitivity score [8]: 0
drug sensitivity score [9]: 0
drug sensitivity score [10]: 0
relative viability EC50 [11]: > 10 µM
relative viability EC50 [12]: > 10 µM
relative viability EC50 [13]: > 10 µM
relative viability EC50 [14]: > 10 µM
relative viability EC50 [15]: > 10 µM
